Laboratory results reported in patent publication US11760761B2, “Methods and compositions for targeting PD-L1” (Aligos Therapeutics, Inc., priority 2020, dated 2023).

Assays:
PD-1/PD-L1 interaction = PD-1/PD-L1 interaction (Homo sapiens (Human), UniProt Q9NZQ7); experiment: PD-1/PD-L1 NFAT Reporter Assay (Jurkat T cells / PD-L1 expressing CHO cells co-culture); format: cell-based; settings: for Emax: Jurkat, maximum NFAT-activation level relative to the positive control (10 nM Atezolizumab); for EC50: co-culture 6 hrs at 37° C., luciferase
Sequence of PD-1/PD-L1 interaction (Q9NZQ7 19-290): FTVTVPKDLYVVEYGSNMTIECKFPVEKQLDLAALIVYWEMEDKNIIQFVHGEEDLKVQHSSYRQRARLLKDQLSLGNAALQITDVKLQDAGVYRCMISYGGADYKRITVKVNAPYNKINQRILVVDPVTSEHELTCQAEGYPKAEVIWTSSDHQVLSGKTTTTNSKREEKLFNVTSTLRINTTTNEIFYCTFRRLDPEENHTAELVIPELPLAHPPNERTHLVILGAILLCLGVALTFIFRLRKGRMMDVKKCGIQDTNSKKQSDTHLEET
Method: Blocking the PD-1/PD-L1 interaction will release the inhibitory signal and results in TCR signaling and NFAT-mediated luciferase activity.
CHO cells expressing surface-bound anti-CD3 antibodies and PD-L1 were first seeded overnight and treated with the compounds. Jurkat cells overexpressing PD-1 and a luciferase construct under NF-AT promoter were then immediately seeded on the monolayer of CHO cells. The co-culture was then incubated for 6 hrs at 37° C. Luciferase activity was assessed by adding the ONE-Glo reagent and measuring luminescence with a plate reader. EC50s values were determined from the fit of the dose-response curves Emax (%) corresponds to the maximum NFAT-activation level reached by a given compound relative to the positive control (10 nM Atezolizumab).

PDL1 = PDL1 (Homo sapiens (Human), UniProt Q9NZQ7); experiment: PDL1 Dimerization Assay; format: biochemical; settings: 0.5 nM PDL1-6xHis, 0.5 nM PDL1-strep; read-out: PD-L1 dimerization EC50
Sequence of PDL1 (Q9NZQ7 19-238): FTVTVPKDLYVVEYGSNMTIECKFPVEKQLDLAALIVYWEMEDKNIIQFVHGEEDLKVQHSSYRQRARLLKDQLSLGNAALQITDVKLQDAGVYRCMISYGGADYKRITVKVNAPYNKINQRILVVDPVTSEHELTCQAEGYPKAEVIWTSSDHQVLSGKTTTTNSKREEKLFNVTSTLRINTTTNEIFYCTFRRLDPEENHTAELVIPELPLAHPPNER
Sequence of PDL1 (Q9NZQ7 19-238): as above
Method: Serially diluted compounds were added to plate wells with the final concentration of DMASO at 1%. PDL1-6×His and PDL1-strep proteins were diluted in assay buffer (25 mM Hepes pH 7.4, 150 mM NaCl, 0.005% Tween 20, BSA 0.01%), added to the wells, and mixed well with the compounds. The plates were incubated for 2 h at room temperature. Anti-6×His Acceptor beads were added to the wells and the plates were further incubated for 1 h at room temperature. Strep-tactin Donor beads were added to the wells at reduced light. After additional 1 h incubation in the dark, the plates were read on a Envision reader. The final concentrations were 0.5 nM PDL1-6×His, 0.5 nM PDL1-strep, 20 ug/mL Anti-6×His Acceptor beads, 20 ug/mL Strep-tactin Donor beads. The EC50 values were determined by fitting the curves using a four-parameter equation in Graphpad Prism 8.

PDL1/PD1 = PDL1/PD1 (Homo sapiens (Human), UniProt Q9NZQ7); experiment: PDL1/PD1 Binding Assay; settings: PDL1-6xHis 0.3 nM, PD1-Fc-Avi-Biotin 2.5 nM, Acceptor/Donor beads; read-out: PD-1/PD-L1 PPI IC50
Sequence of PDL1/PD1 (Q9NZQ7 19-238): as above
Method: Compounds to be tested were serially diluted in DMSO, and further diluted in assay buffer (25 mM Hepes pH 7.4, 150 mM NaCl, 0.005% Tween 20, BSA 0.01%). Diluted compounds were added to the wells with final concentration of DMSO at 1%. PDL1-6×His protein was added to the wells, mixed well with compound. The plates were incubated for 30 min at room temperature. PD1-Fc-Avi-Biotin protein was added to the wells. Final concentration of PDL1 and PD1 protein is 0.3 nM and 2.5 nM, respectively. After a binding time of 30 min at room temperature, Anti-6×His Acceptor beads (final concentration 20 ug/ml) were added to the wells, and the incubation continued for 1 h. Streptavidin Donor beads (final concentration 20 ug/mL) were added at reduced light. The plates were sealed with foil and incubated in the dark for additional 1 h or overnight before reading on an Envision reader. The IC50 values were determined by fitting the curves using a four-parameter equation in Graphpad Prism 8.

Compound	Emax (PD-1/PD-L1 interaction) [%]	EC50 (PD-1/PD-L1 interaction) [nM]	EC50 (PDL1) [nM]	IC50 (PDL1/PD1) [nM]
COc1cc(-c2cccc(-c3cccc(-c4cnc(CN5CC(O)C5)c(OC)n4)c3Cl)c2Cl)cc2c1[C@@H](N1CC(O)C1)CC2 (single isomer, unassigned) [Compound A-9]	105	100 to 1000	1000 to 10000	≤ 10
COc1cc(-c2cccc(-c3cccc(-c4cnc(CN5CC6(CCC(=O)N6)C5)c(OC)n4)c3Cl)c2Cl)cc2c1[C@H](NCC(=O)O)CC2 (single isomer, unassigned) [Compound B-2]	107	100 to 1000	1000 to 10000	
COc1nc(-c2cccc(-c3cccc(-c4cc5c(c(OC)n4)C(N4CCN(C(C)=O)CC4)CC5)c3Cl)c2Cl)cnc1CN1CC2(CCC(=O)N2)C1 (centres unmarked) [Compound C-10]		10 to 100		≤ 10
COc1nc(-c2cccc(-c3cccc(-c4cc5c(c(OC)n4)[C@@H](N4CC(C(=O)O)C4)CC5)c3Cl)c2Cl)cnc1CN1CC(OC)C1 (single isomer, unassigned) [Compound H-3]		10 to 100		≤ 10
COc1nc(-c2cccc(-c3cccc(-c4cc5c(c(OC)n4)[C@H](N4CC6(CN(C(C)=O)C6)C4)CC5)c3Cl)c2Cl)cnc1CN1CC2(C1)CN(C(C)=O)C2 (single isomer, unassigned) [Compound D-19]		≤ 10		≤ 10
COc1nc(-c2cccc(-c3cccc(-c4cc5c(c(OC)n4)[C@H](NC[C@@H]4CCC(=O)N4)CC5)c3Cl)c2Cl)cnc1CN1CC(OC)C1 [Compound D-10]		1000 to 10000		≤ 10
COc1cc(-c2cccc(-c3cccc(-c4cnc(CN5CC6(CCC(=O)N6)C5)c(OC)n4)c3Cl)c2Cl)cc2c1[C@H](N1CC3(CCC(=O)N3)C1)CC2 (single isomer, unassigned) [Compound A-8]	145	100 to 1000	1000 to 10000	≤ 10
COc1nc(-c2cccc(-c3cccc(-c4cc5c(c(OC)n4)CCN(CC(=O)O)C5)c3Cl)c2Cl)cnc1CN1CC(O)(C(F)(F)F)C1 [Compound J-3]		1000 to 10000		≤ 10
COc1cc(-c2cccc(-c3cccc(-c4cnc(CN5CC6(CCC(=O)N6)C5)c(OC)n4)c3Cl)c2Cl)cc2c1[C@H](N1CC(O)C1)CC2 (single isomer, unassigned) [Compound A-6]	32			≤ 10
COc1nc(-c2cccc(-c3cccc(-c4cc5c(c(OC)n4)[C@@H](NC[C@@H]4CCC(=O)N4)CC5)c3Cl)c2Cl)cnc1CN1CCCC1 [Compound D-11]		≤ 10		≤ 10
COc1nc(-c2cccc(-c3cccc(-c4cc5c(c(OC)n4)[C@H](NC[C@@H]4CCC(=O)N4)CC5)c3Cl)c2Cl)cnc1CN1CC2(CCC(=O)N2)C1 [Compound C-2]		100 to 1000		≤ 10
COc1nc(-c2cccc(-c3cccc(-c4cc5c(c(OC)n4)[C@@H](N4CC6(CCC(=O)N6)C4)CC5)c3Cl)c2Cl)cnc1CNC[C@@H]1CCC(=O)N1 (single isomer, unassigned) [Compound D-15]		10 to 100		≤ 10
COc1nc(-c2cccc(-c3cccc(-c4cc5c(c(OC)n4)[C@@H](NC[C@@H]4CCC(=O)N4)CC5)c3Cl)c2Cl)cnc1CN1CC(OC)C1 [Compound D-9]		≤ 10		≤ 10
CCOC(=O)C1CN([C@H]2CCc3cc(-c4cccc(-c5cccc(-c6cnc(CN7CC8(CCC(=O)N8)C7)c(OC)n6)c5Cl)c4Cl)cc(OC)c32)C1 (single isomer, unassigned) [Compound A-3]	84	100 to 1000		≤ 10
COc1nc(-c2cccc(-c3cccc(-c4cc5c(c(OC)n4)[C@@H](N4CC(C(=O)O)C4)CC5)c3Cl)c2Cl)cnc1CN1C[C@@H](O)[C@@H]1C (single isomer, unassigned) [Compound H-5]		10 to 100		≤ 10
COc1nc(-c2cccc(-c3cccc(-c4cc5c(c(OC)n4)[C@@H](NC[C@@H]4CCC(=O)N4)CC5)c3Cl)c2Cl)cnc1CN1CCN(C(C)=O)CC1 [Compound D-6]		≤ 10		≤ 10
COc1cc(-c2cccc(-c3cccc(-c4cnc(CN5CC6(CCC(=O)N6)C5)c(OC)n4)c3Cl)c2Cl)cc2c1[C@@H](NCC(=O)O)CC2 [Compound B-1]	89	1000 to 10000	1000 to 10000	
COc1nc(-c2cccc(-c3cccc(-c4cc5c(c(OC)n4)[C@@H](N4CC(O)C4)CC5)c3Cl)c2Cl)cnc1CN1CC2(CCC(=O)N2)C1 (single isomer, unassigned) [Compound C-5]		≤ 10		≤ 10
COc1cc(-c2cccc(-c3cccc(-c4cnc(CN5CC6(CCC(=O)N6)C5)c(OC)n4)c3Cl)c2Cl)cc2c1[C@@H](N1CC3(CCC(=O)N3)C1)CC2 (single isomer, unassigned) [Compound A-7]	24			≤ 10
COc1nc(-c2cccc(-c3cccc(-c4cc5c(c(OC)n4)[C@@H](NC[C@@H]4CCC(=O)N4)CC5)c3Cl)c2Cl)cnc1CN1CC(O)C1 [Compound D-8]		≤ 10		≤ 10
COc1cc(-c2cccc(-c3cccc(-c4cnc(CN5CC6(CCC(=O)N6)C5)c(OC)n4)c3Cl)c2Cl)cc2c1[C@H](N1CC(C(=O)O)C1)CC2 (single isomer, unassigned) [Compound B-4]	65	1000 to 10000		≤ 10
